Article PMC6382874, “Succinylation-dependent mitochondrial translocation of PKM2 promotes cell survival in response to nutritional stress” (Cell Death & Disease, 2019)
Read-outs that look alike come from different tables or passages of the source.

Legend:
[1] = test system: outer mitochondrial membrane permeability; assay: NADH oxidation assay in mitochondria isolated from HCT116 cells; format: cell-based, human; conditions: 20 µM, 8 h
Experimental: Fig. 6 Compound 8 blocks PKM2 mitochondrial translocation under nutritional stress and inhibits tumor growth in vivo. a Compound 8 blocks glucose starvation induced PKM2 mitochondrial translocation. Isolation of mitochondria and immunoblot of PKM2, tubulin and Tom 40 were carried out with or without compound 8 treatment. b Compound 8 disrupts interaction of PKM2 and VDAC3. HCT116 cells were transfected with HA-tagged PKM2, cells were harvested and subjected to stag pull down after 8 h 20 µM compound 8 treatment. c Compound 8 induces VDAC3 for degradation. cells were harvested and evaluated VDAC3 protein levels after 8 h 10 or 20 µM compound 8 treatment. d, e Compound 8 caused a decrease in the rate of NADH oxidation. After 8 h of treatment with 20 µM compound 8, HCT116 cells mitochondria were isolated for NADH oxidation assays. NAD/NADH ratios in HCT116 cell lysates were evaluated by LC–MS. f Compound 8 inhibited ATP production in HCT116 cells. g The tumor volume (n = 7) of HCT116 xenografts from mice with intraperitoneal injection of compound 8 and vehicle control […]
NADH oxidation in the mitochondria was measured by resuspending mitochondria isolated from HCT116 cells after knockdown or overexpression of PKM2, K433E, K433R, PKM1, or treatment with 20 μM compound 8 for 8 h in 25 mM NADH. Absorbance was monitored at λ = 340 nm. […]

[2] = test system: MCF7 cells; assay: cell viability test, MCF7; format: cell-based; conditions: cell viability, 48 h, read-out: IC50 (MCF7)
Experimental: (§1) We assessed the anti-tumor effects of compound 8 by evaluation of cancer cell viability. Compound 8 reduced cell viability with an IC50 of about 5 µM in MTT reduction assays in HCT116, MCF7, and H1299 cells (Table 2). […] To determine whether cancer cell death brought about by compound 8 is PKM2 dependent, PKM2 was knocked down in HCT116 cells using two different shRNA sequences that specifically targeted exon 10 without interfering with PKM1 expression. Compound 8 is an inhibitor which causes a loss of function of PKM2. If PKM2 is a specially targeted by compound 8, its knockdown should render cells more vulnerable to compound 8-mediated PKM2 inhibition since shRNA and compound 8 work synergistically by reducing the intracellular drug target concentration.
(§2) Cells were seeded in 96-well plates at 5000 cells/well in DMEM media overnight. Cells were treated with different concentrations of test compound for 48 h at 37 °C in 5% CO2. Cell viability was assayed with the MTS assay (Promega) and trypan blue staining according to the manufacturer’s instructions.

[3] = test system: PKM2 knockdown HCT116 cells; assay: annexin v stain apoptosis assay in PKM2 knockdown cells; format: cell-based, human; conditions: 20 µM, 12 h
Text: (§3) Fig. 5 Identification and characterization of PKM2 inhibitors. a PKM2 inhibitors. […] It prints only the data set name 'Data: pkm2_NDH', so the substance label is left empty. / Panel b, N: small print, 0.941 ±0.0712, digits uncertain / Panel b, K: small print, 8.63E4 ±3.63E4, the digits 8, 6 and 3 are uncertain / Panel b, ΔH: small print, -5962 ±675.9, the digits 5, 9 and 6 are uncertain / Panel b, ΔS: small print, 2.59, the digits 5 and 9 are uncertain
as §1
Two shRNAs with PKM2 specific exon 10 sequence knockdown were used (5'-[…]-3'; 5'-[…]-3'), and a shRNA with no effect on PKM2 levels was employed as a control (5'-[…]-3). […]

[4] = target: T1, PKM2 (Homo sapiens, UniProt P14618); assay: binding to PKM2 measured by MicroCal iTC200; design: His-tag (N); made in house; host or cells: Escherichia coli BL21
T1 sequence (P14618 whole entry): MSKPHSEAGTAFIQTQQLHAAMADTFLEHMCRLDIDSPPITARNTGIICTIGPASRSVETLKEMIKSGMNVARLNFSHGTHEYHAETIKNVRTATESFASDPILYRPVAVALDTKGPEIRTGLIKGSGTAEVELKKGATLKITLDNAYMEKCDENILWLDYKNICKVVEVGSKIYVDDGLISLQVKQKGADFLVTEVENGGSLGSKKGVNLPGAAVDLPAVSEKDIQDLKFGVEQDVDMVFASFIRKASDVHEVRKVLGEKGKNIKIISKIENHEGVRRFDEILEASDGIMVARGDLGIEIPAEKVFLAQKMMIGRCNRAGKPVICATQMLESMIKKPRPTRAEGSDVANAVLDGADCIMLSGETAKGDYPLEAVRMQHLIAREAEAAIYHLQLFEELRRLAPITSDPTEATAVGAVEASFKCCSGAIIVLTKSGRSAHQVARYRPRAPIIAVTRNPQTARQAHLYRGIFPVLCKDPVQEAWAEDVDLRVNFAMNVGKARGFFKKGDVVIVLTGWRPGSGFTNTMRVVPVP
Text: We tested modifications of target compounds for PKM2 inhibitory activity.
as §3
(§4) Human cDNA for PKM2, PKM1, and VDAC3 were separately cloned into a pET28a (+) and pGEX-4T-1 vector with an N-terminal His-tag and N-terminal GST-tag and purified from the Escherichia coli strain BL21 (Invitrogen) using Ni–agarose beads and GST agarose beads (Qiagen) as described previously. PKL was purchased from Sino Biological Inc. in China.

[5] = target: T1, PKM2; assay: fluorescent pyruvate kinase-lactate dehydrogenase (PK-LDH) coupled assay, PKM2; format: biochemical; design: His-tag (N); made in house; host or cells: Escherichia coli BL21; conditions: for selectivity for PKM2 over PKM1 and PKL: Supplementary Figure S4c
Experimental: A random screening of an in-house small molecule library (~1000 total molecules) was undertaken to identify new PKM2 modulators, which can block the interaction of PKM2 and VDAC3. The activity of these test compounds was assessed with a fluorescent PK-LDH coupled assay by a previously reported method (Supplementary Figure S4a)[37]. […] We undertook structural optimization by chemical modification. We designed new compounds utilizing a methyl group instead of the NP-1 chlorine moiety. Synthesis of target compounds was carried out according to the six-step protocol outlined in Supplementary Figure S4d, which was based on a previously described procedure[39],[40].
as §4
Pyruvate kinase activity was measured with a fluorescent pyruvate kinase–lactate dehydrogenase coupled assay as described previously. All compounds were tested in a kinetic mode by coupling the generation of pyruvate by pyruvate kinase to the depletion of NADH through lactate dehydrogenase. For PKM2, 40 μL of buffer (50 mM Tris–HCl, pH 7.5, 10 mM KCl, 5 mM MgCl2), 1 μL of compound and 5 μL of enzyme solution were dispensed into Corning black solid 96-well plates and incubated for 15 min. Totally, 55 μL of substrate mix (final concentration, 0.5 mM PEP, 4.0 mM ADP, 0.12 mM NADH, 0.25 mM FBP, and 1 unit LDH) were then added, and the plates were placed in a FlexStation3 (Molecular Devices), followed by determination of NADH fluorescence at 30 s exposure intervals for 3–6 min. Data were collected on a FlexStation3.

[6] = test system: HCT116 cells; assay: cell viability test, HCT116; format: cell-based, human; conditions: cell viability, 48 h, read-out: IC50 (HCT116)
Experimental: as §1, §2

SMILES: CCCN(CCC)P(N)(=O)OCC1=CC(=O)c2ccccc2C1=O (centres unmarked) [Compound 8]
- rate of NADH oxidation in purified mitochondria [1]: reduced
- IC50 ([2]; Homo sapiens, MCF7, 48 h): ~5 µM
- IC50 [2]: 5.4 ± 1.14 µM
- apoptosis of PKM2 knockdown cells [3]: increased the apoptosis of PKM2 knockdown cells
- Kd [4]: ~11 µM
- selectivity for PKM2 over PKM1 and PKL [5]: markedly inhibited PKM2, but inhibited PKM1 and PKL to much smaller extent
- selectivity for PKM2 over PKM1 and PKL ([5]; listed as compound 8): PKM2 inhibitor of high selectivity
- IC50 on PKM2 relative to NP-1 ([5]; ratio of IC50 values of Table 1): about threefold lower than that of NP-1
- IC50 ([5]; recombinant enzyme, PK-LDH coupled assay, 15 min preincubation, read-out: IC50 (PKM2)): 0.77 ± 0.3 µM
- IC50 ([6]; Homo sapiens, HCT-116, 48 h): ~5 µM
- IC50 [6]: 5.19 ± 1.74 µM
